According to US20200246364A1, “MEDICAL APPLICATION OF COMPOSITION OF FRUCTOSE-1,6-BISPHOSPHATE AND BLOOD CONCENTRATION STABILIZER THEREOF” (ZHEJIANG UNIVERSITY, priority 2017, published 2020):

Tests used:
[1] = tested on: Normal human astrocytes (HA); experiment: Regulation of metabolism in normal human astrocytes; type: cell-based; conditions: vs control group
Procedure: Normal human astrocytes (HA) were incubated in culture media containing different concentrations of trisodium fructose-1,6-bisphosphate salt (0 mM, 0.25 mM, 0.5 mM, 1 mM), and lactic acid level in the culture media and intracellular ATP level were measured after 12 h and 24 h.
The normal human astrocytes (HA) were incubated in culture media containing different concentrations of trisodium fructose-1,6-bisphosphate salt (0 mM, 0.25 mM, 0.5 mM, 1 mM, 2 mM, 2.5 mM), and after 36 h, reduced glutathione GSH level and a ratio of NADPH/NADP+ in the group of […] trisodium fructose-1,6-bisphosphate in the cells were measured. […] (FIG. 1d, e)

KNS-89 [2] = experiment: Mitochondrial oxidative phosphorylation in glioma cells (ATP/ADP, NADH/NAD+, ATP); type: cell-based, human
Bel-7402 = experiment: cells; conditions: Homo sapiens, Bel-7402, 72 h, read-out: cell viability inhibited
Procedure: Human liver cancer cell strains Bel-7402 and huh-7, which had been incubated for 24 hours, were respectively incubated in a medium containing 1.6 mM or 0.8 mM of trisodium fructose-1,6-bisphosphate, a medium containing 0.2 mM of metformin or 25 μM of sitagliptin, and a medium containing 0.8 mM of trisodium fructose-1,6-bisphosphate and 0.2 mM of metformin/25 μM of sitagliptin for 72 h. A control group (Con) was not treated with the agent. Cell viability was determined by Sulforhodamine B (SRB) staining analysis method.

[3] = tested on: mouse liver cancer cells H22; experiment: Tumor growth of mouse liver cancer H22 model; type: in vivo, ICR mice; conditions: FBP 500 mg/kg, i.g., 7 days; for Tumor weight: three times per day
Procedure: The treatment was performed three times per day, in which metformin or sitagliptin was administrated 0.5 h before trisodium fructose-1,6-bisphosphate. This is repeated for 7 days, and situations of the animals during the experiments were observed. The animals were sacrificed 24 hours after the last treatment, the tumor masses were taken out and weighed, and the average tumor weight in each group of animals was used as an efficacy index.

[4] = Weight gain and fat accumulation caused by high-fat diet; type: in vivo, ICR mice; conditions: high-fat diet mice
Procedure: 40 ICR male mice (17-19 g/per mouse) were divided into 2 groups. […] The animals of the normal group (Naive) were still fed with the basic feed, and the model animals were equally divided into 4 groups and were further fed with the high-fat diet. In addition, according to the amount of water the mice had consumed, a certain dose of the agent was dissolved in drinking water. The animals in the model group (Model) were fed with the purified water, the animals in the fructose-1,6-bisphosphate group were fed with water containing 0.18% of 8-molecule hydrate of sodium fructose-1,6-bisphosphate (equivalent to FBP 300 mg/kg), the animals in the sitagliptin group were fed with water containing 0.012% of sitagliptin phosphate salt (equivalent to STG 20 mg/kg), and the animals in the combination group were fed with water containing FBP 500 mg/kg+STG 20 mg/kg. The treatment lasted continuously for 6 weeks, the body weight, food intake and water intake were measured per week, the body weight and body length (CM) were measured on the last day of the last week, and a Lee's INDEX (Lee's INDEX=body weight (g)^(1/3) * 1000/body length (cm)) was calculated to evaluate the state of animal obesity. Then, the animals were sacrificed by cervical vertebra dislocation and the mice were dissected, the epididymal fat pad was taken and weighed, and a fat coefficient was calculated to further investigate the degree of obesity of the mice.

U251 = experiment: Reactive oxygen species and mitochondrial membrane potential; type: cell-based, human; conditions: U251, 0.8 mM
U87MG = experiment: Western Blot of metabolic enzymes and epigenetic proteins, 5-hmC immunocytochemistry; type: cell-based, human; conditions: 1.6 mM
Procedure: Human glioma cell strain (U87MG) was cultured in a medium containing 1.6 mM of trisodium fructose-1,6-bisphosphate for 36 h, and then cytoplasm and mitochondria were separated. Levels of tricarboxylic acid circulation intermediates in cytoplasm and mitochondria were respectively measured by LC-MS/MS.
Human glioma cell strain (U87MG) was respectively cultured in the medium containing 1.6 mM of trisodium fructose-1,6-bisphosphate for 0, 1, 3, 6, 12, 24, 36, and 48 h, and the changes of protein levels of enzymes related to fatty acid and nucleic acid biosynthetic pathway were investigated by Western Blot (WB).
Human glioma cell strain (U87MG) was respectively cultured in the medium containing 1.6 mM of trisodium fructose-1,6-bisphosphate for 24 h and 36 h, and then a level of 5-hydroxymethylcytosine (5-hmC) was measured by an immunocytochemistry method.

U87-MG = experiment: Intracellular glycolytic intermediates (LC-MS/MS) and FBP in culture medium; type: cell-based, human; conditions: 1.6 mM, 36 h
Procedure: (§1) Rat glioma cell strains (C6), human glioma cell strains (U87-MG, U-251, SHG-44) and patient-derived glioma cells (tumor 1, tumor 3) were incubated in a culture medium containing 1.6 mM of trisodium fructose-1,6-bisphosphate, and after 36 h, levels of glycolytic intermediates including glucose-6-phosphate G6P, fructose-1,6-bisphosphate FBP, glyceraldehyde 3-phosphate (GAP), dihydroxyacetone phosphate (DHAP), and […] 3-phosphoglyceric acid PGA in respective cells were measured by using LC-MS/MS; and additionally, the levels of fructose-1,6-bisphosphate in each glioma cell strain at 12 h and 36 h were measured.

[5] = tested on: patient-derived glioma cells Tumor 1; experiment: as above; type: cell-based, human; conditions: Tumor 1, 1.6 mM, 36 h
Procedure: as §1

SHG-44 [6] = experiment: as above; type: cell-based, human; conditions: SHG-44, 1.6 mM, 36 h
Procedure: as §1

[7] = tested on: patient-derived glioma cells Tumor 3; experiment: as above; type: cell-based, human; conditions: Tumor 3, 1.6 mM, 36 h
Procedure: as §1

mouse tumor models = conditions: injected intraperitoneally; cited from earlier work
SHG-44 [8] = experiment: Glutathiones and NADPH/NADP+ (LC-MS/MS); type: cell-based, human; conditions: SHG-44, 1.6 mM, 36 h
Procedure: (§2) Rat glioma cell strain (C6) and human glioma cell strain (KNS-89, SHG-44) were respectively cultured in a medium containing 1.6 mM of trisodium fructose-1,6-bisphosphate for 36 h, and important antioxidants in cells were measured by liquid-mass spectrometry (LC-MS/MS).

KNS-89 [9] = experiment: Glutathiones and NADPH/NADP+ (LC-MS/MS); type: cell-based, human; conditions: KNS-89, 1.6 mM, 36 h
Procedure: as §2

C6 = experiment: Glutathiones and NADPH/NADP+ (LC-MS/MS); type: cell-based, rat; conditions: C6, 1.6 mM, 36 h
Procedure: as §2

O=C(COP(=O)(O)O)[C@@H](O)[C@H](O)[C@H](O)COP(=O)(O)O [FBP, fructose-1,6-bisphosphate]
intracellular protein level of Cyto C (Western Blot) ([1]; 0.8 mM, 36 h): significantly increased | intracellular protein levels of PFKFB3 and LDH5 (Western Blot) ([1]; 0.8 mM, 36 h): significantly reduced | ratio of NADPH/NADP+ ([1]; 1.6 mM, 36 h): significantly increased | lactic acid level in the culture media ([1]; 0.25, 0.5, 1 mM, 12 h and 24 h): decreased significantly | intracellular ATP level ([1]; 0.25, 0.5, 1 mM, 24 h): increased significantly | reduced glutathione GSH level ([1]; 0.25-2.5 mM, 36 h): significantly increased | ratio of ATP/ADP (CON = 1.00) (KNS-89 [2]; KNS-89, 0.8 mM or 1.6 mM, 36 h): 2.91 ± 0.03 | ratio of NADH/NAD+ (CON = 1.00) (KNS-89 [2]; KNS-89, 0.8 mM or 1.6 mM, 36 h): 9.44 ± 0.75 | ATP level (KNS-89 [2]; KNS-89, 36 h, vs control group): significantly increased | cytotoxicity at 800 µM (Bel-7402): 41% | Tumor weight ([3]; H22, metformin experiment, Met 150 mg/kg, Con 1.66 ± 0.29): 0.91 ± 0.23 g | Tumor weight ([3]; H22, sitagliptin experiment, STG 20 mg/kg, Con 1.48 ± 0.34): 0.67 ± 0.28 g | inhibition of tumor growth (inhibition ratio) ([3]; H22, metformin 150 mg/kg, sitagliptin 20 mg/kg): 54.39% | fat coefficient (epididymal fat pad) ([4]; 6 weeks, model group 3.96±0.83%, normal group 1.58±0.68%): 2.81±0.81% | Lee's INDEX ([4]; 6 weeks, model group 353.28±9.64, normal group 337.05±9.96): 326.14±11.10 | body weight after 6 weeks ([4]; agents in drinking water, FBP 300 mg/kg, STG 20 mg/kg, combination FBP 500 mg/kg+STG 20 mg/kg, model group 47.89±3.34): 45.93 ± 5.1 g | Relative level of mitochondrial membrane potential (compared with the control group) (U251; 12 h): 1.08 ± 0.03 | Relative level of reactive oxygen species (compared with the control group) (U251; 12 h): 1.20 ± 0.04 | Relative level of mitochondrial membrane potential (compared with the control group) (U251; 24 h): 1.18 ± 0.01 | Relative level of reactive oxygen species (compared with the control group) (U251; 24 h): 1.19 ± 0.03 | Relative level of mitochondrial membrane potential (compared with the control group) (U251; 48 h): 0.6 ± 0.06 | Relative level of reactive oxygen species (compared with the control group) (U251; 48 h): 1.42 ± 0.03 | Relative level of mitochondrial membrane potential (compared with the control group) (U251; 72 h): 0.4 ± 0.07 | Relative level of reactive oxygen species (compared with the control group) (U251; 72 h): 1.82 ± 0.03 | epigenetic related proteins of tumor cells (Ac-Foxo, H3K9ac, H3K9me2) (U87MG): quickly down-regulated | protein levels of malate shuttle-related enzymes (ME1, MDH1, MDH2, GOT1, GOT2) (U87MG): decreased significantly over time | protein levels of enzymes related to fatty acid and nucleic acid biosynthesis (CAD, TS, ACL, FASN) (U87MG; 0-48 h, Western Blot): decreased significantly over time | level of 5-hydroxymethylcytosine (5-hmC) (U87MG; 24 h and 36 h, immunocytochemistry): significantly increased | Increase folds of intracellular DHAP (compared with the control group) (U87-MG): 944.4 folds | Increase folds of intracellular F6P (compared with the control group) (U87-MG): 47.31 folds | Increase folds of intracellular FBP (compared with the control group) (U87-MG): 149.69 folds | Increase folds of intracellular GAP (compared with the control group) (U87-MG): 1222.86 folds | Increase folds of intracellular PGA (compared with the control group) (U87-MG): 3.03 folds | Increase folds of intracellular DHAP (compared with the control group) [5]: 4.9 folds | Increase folds of intracellular F6P (compared with the control group) [5]: 2.02 folds | Increase folds of intracellular FBP (compared with the control group) [5]: 8.27 folds | Increase folds of intracellular GAP (compared with the control group) [5]: 7.22 folds | Increase folds of intracellular PGA (compared with the control group) [5]: 1.13 folds | Increase folds of intracellular DHAP (compared with the control group) (SHG-44 [6]): 12.48 folds | Increase folds of intracellular F6P (compared with the control group) (SHG-44 [6]): 3.12 folds | Increase folds of intracellular FBP (compared with the control group) (SHG-44 [6]): 10.74 folds | Increase folds of intracellular GAP (compared with the control group) (SHG-44 [6]): 21.03 folds | Increase folds of intracellular PGA (compared with the control group) (SHG-44 [6]): 2.04 folds | Increase folds of intracellular DHAP (compared with the control group) [7]: 55.58 folds | Increase folds of intracellular F6P (compared with the control group) [7]: 14.12 folds | Increase folds of intracellular FBP (compared with the control group) [7]: 22.94 folds | Increase folds of intracellular GAP (compared with the control group) [7]: 76.22 folds | Increase folds of intracellular PGA (compared with the control group) [7]: 1.86 folds | effective dose for mouse tumor models (mouse tumor models): 400-450 mg/kg/time | Relative content of GSH (compared with the control group) (SHG-44 [8]): 0.67 ± 0.01 | Relative content of GSSG (compared with the control group) (SHG-44 [8]): 0.38 ± 0.01 | Relative ratio of NADPH to NADP+ (compared with the control group) (SHG-44 [8]): 0.39 ± 0.01 | Relative content of GSH (compared with the control group) (KNS-89 [9]): 0.01 ± 0.00 | Relative content of GSSG (compared with the control group) (KNS-89 [9]): 0.33 ± 0.02 | Relative ratio of NADPH to NADP+ (compared with the control group) (KNS-89 [9]): 0.44 ± 0.04 | Relative content of GSH (compared with the control group) (C6): 0.69 ± 0.01 | Relative content of GSSG (compared with the control group) (C6): 0.06 ± 0.00 | Relative ratio of NADPH to NADP+ (compared with the control group) (C6): 0.14 ± 0.01
